Laboratory results reported in patent publication US20200060276A1, “THIAZOLE COMPOUND AND HERBICIDE” (OAT Agrio Co., Ltd., priority 2017, published 2020).

Tests used:
Type in all cases: in vivo
[1] = test system: Echinochloa crus-galli (L.) P. Beauv. var. formosensis Ohwi; test: Test for Herbicidal Effect in Flooding Treatment (#1), ECHDG; conditions: flooding treatment at seeding, dose 2 kg/ha, visual observation on day 21
Summary of the method: (§1)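 Flooded soil in cups was seeded 24 h after flooding, then treated with compound in acetone diluted with Tween 80-containing water, dropped onto the water surface at 2 kg/ha. After growth in a glasshouse, growth inhibition was scored visually on day 21 on a 0 (<10%) to 5 (≥90% or complete withering) scale.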

Monochoria vaginalis = test: Test for Herbicidal Effect in Flooding Treatment (#1), MONVA; conditions: flooding treatment at seeding, dose 2 kg/ha, visual observation on day 21
Summary of the method: as §1

Scirpus juncoides = test: Test for Herbicidal Effect in Flooding Treatment (#1), SCIJU; conditions: flooding treatment at seeding, dose 2 kg/ha, visual observation on day 21
Summary of the method: as §1

Cyperus microiria = test: Test for Herbicidal Effect in Flooding Treatment (#1), CYMIC; conditions: flooding treatment at seeding, dose 2 kg/ha, visual observation on day 21
Summary of the method: as §1

[2] = test system: Echinochloa crus-galli (L.) P. Beauv. var. formosensis Ohwi; test: Test for Herbicidal Effect in Flooding Treatment (#2), ECHDG at 2-2.5 leaf stage; conditions: for ECHDG (2-2.5L) #2 herbicidal effect (growth inhibition grade): flooding treatment at 2-2.5 leaf stage, dose 0.2 kg/ha, visual observation on day 21
Summary of the method: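 Flooded muddy soil was seeded with the weed, and at 2–2.5 leaf stage compound in acetone/Tween 80 water was dropped on the water surface at 0.2 kg/ha. Plants were kept in a glasshouse and scored visually on day 21 from 0 (<10% growth inhibition) to 5 (≥90% or complete withering).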

SMILES	ECHDG #1 herbicidal effect (growth inhibition grade) [1]	MONVA #1 herbicidal effect (growth inhibition grade) (Monochoria vaginalis)	SCIJU #1 herbicidal effect (growth inhibition grade) (Scirpus juncoides)	CYMIC #1 herbicidal effect (growth inhibition grade) (Cyperus microiria)	ECHDG (2-2.5L) #2 herbicidal effect (growth inhibition grade) [2]	inhibition at 200 g/ha ([2]; Echinochloa crus-galli, 504 h, flooding treatment (#2), ECHDG at 2-2.5 leaf stage, dose of 0.2 kg/ha, day 21, visual observation, read-out: growth inhibition effect) [%]
O=S(=O)(Cc1c(F)cc(OCCC(F)(F)F)cc1F)c1ncc(Cl)s1 [Compound 1C-117]	5 (Growth inhibition effect is equal to or greater than 90%, or complete withering is achieved)	5 (Growth inhibition effect is equal to or greater than 90%, or complete withering is achieved)	5 (Growth inhibition effect is equal to or greater than 90%, or complete withering is achieved)	5 (Growth inhibition effect is equal to or greater than 90%, or complete withering is achieved)	4 (Growth inhibition effect is equal to or greater than 70%, and less than 90%)	
COc1ccc(CS(=O)(=O)c2ncc(Cl)s2)c(F)c1 [Compound 1C-88]	5 (Growth inhibition effect is equal to or greater than 90%, or complete withering is achieved)	5 (Growth inhibition effect is equal to or greater than 90%, or complete withering is achieved)	5 (Growth inhibition effect is equal to or greater than 90%, or complete withering is achieved)	5 (Growth inhibition effect is equal to or greater than 90%, or complete withering is achieved)	4 (Growth inhibition effect is equal to or greater than 70%, and less than 90%)	
CCOc1ccc(F)c(CS(=O)(=O)c2ncc(Cl)s2)c1F [Compound 1C-82]	5 (Growth inhibition effect is equal to or greater than 90%, or complete withering is achieved)	5 (Growth inhibition effect is equal to or greater than 90%, or complete withering is achieved)	5 (Growth inhibition effect is equal to or greater than 90%, or complete withering is achieved)	5 (Growth inhibition effect is equal to or greater than 90%, or complete withering is achieved)	5 (Growth inhibition effect is equal to or greater than 90%, or complete withering is achieved)	
CCOc1ccc(CS(=O)(=O)c2ncc(Cl)s2)c(C)c1 [Compound 1C-93]	5 (Growth inhibition effect is equal to or greater than 90%, or complete withering is achieved)	5 (Growth inhibition effect is equal to or greater than 90%, or complete withering is achieved)	5 (Growth inhibition effect is equal to or greater than 90%, or complete withering is achieved)	5 (Growth inhibition effect is equal to or greater than 90%, or complete withering is achieved)	5 (Growth inhibition effect is equal to or greater than 90%, or complete withering is achieved)	
CCOc1c(C)ccc(C)c1CS(=O)(=O)c1ncc(Cl)s1 [Compound 1C-28]	5 (Growth inhibition effect is equal to or greater than 90%, or complete withering is achieved)	5 (Growth inhibition effect is equal to or greater than 90%, or complete withering is achieved)	5 (Growth inhibition effect is equal to or greater than 90%, or complete withering is achieved)	5 (Growth inhibition effect is equal to or greater than 90%, or complete withering is achieved)	5 (Growth inhibition effect is equal to or greater than 90%, or complete withering is achieved)	
CCOc1c(C)cc(Cl)cc1CS(=O)(=O)c1ncc(Cl)s1 [Compound 1C-26]	5 (Growth inhibition effect is equal to or greater than 90%, or complete withering is achieved)	5 (Growth inhibition effect is equal to or greater than 90%, or complete withering is achieved)	5 (Growth inhibition effect is equal to or greater than 90%, or complete withering is achieved)	5 (Growth inhibition effect is equal to or greater than 90%, or complete withering is achieved)	5 (Growth inhibition effect is equal to or greater than 90%, or complete withering is achieved)	
CCCOc1cc(Cl)c(CS(=O)(=O)c2ncc(Cl)s2)c(Cl)c1 [Compound 1C-110]	5 (Growth inhibition effect is equal to or greater than 90%, or complete withering is achieved)	5 (Growth inhibition effect is equal to or greater than 90%, or complete withering is achieved)	5 (Growth inhibition effect is equal to or greater than 90%, or complete withering is achieved)	5 (Growth inhibition effect is equal to or greater than 90%, or complete withering is achieved)	5 (Growth inhibition effect is equal to or greater than 90%, or complete withering is achieved)	
O=S(=O)(Cc1cc(Br)ccc1OC(F)(F)F)c1ncc(Cl)s1 [Compound 1C-47]	5 (Growth inhibition effect is equal to or greater than 90%, or complete withering is achieved)	5 (Growth inhibition effect is equal to or greater than 90%, or complete withering is achieved)	5 (Growth inhibition effect is equal to or greater than 90%, or complete withering is achieved)	5 (Growth inhibition effect is equal to or greater than 90%, or complete withering is achieved)	4 (Growth inhibition effect is equal to or greater than 70%, and less than 90%)	
CC(C)Oc1ccccc1CS(=O)(=O)c1ncc(Cl)s1 [Compound 1C-36]	5 (Growth inhibition effect is equal to or greater than 90%, or complete withering is achieved)	5 (Growth inhibition effect is equal to or greater than 90%, or complete withering is achieved)	5 (Growth inhibition effect is equal to or greater than 90%, or complete withering is achieved)	5 (Growth inhibition effect is equal to or greater than 90%, or complete withering is achieved)	4 (Growth inhibition effect is equal to or greater than 70%, and less than 90%)	
CCOc1cccc(F)c1CS(=O)(=O)c1ncc(Cl)s1 [Compound 1C-19]	5 (Growth inhibition effect is equal to or greater than 90%, or complete withering is achieved)	5 (Growth inhibition effect is equal to or greater than 90%, or complete withering is achieved)	5 (Growth inhibition effect is equal to or greater than 90%, or complete withering is achieved)	5 (Growth inhibition effect is equal to or greater than 90%, or complete withering is achieved)	5 (Growth inhibition effect is equal to or greater than 90%, or complete withering is achieved)	≥ 90
CCOc1cc(C)c(Cl)cc1CS(=O)(=O)c1ncc(Cl)s1 [Compound 1C-30]	5 (Growth inhibition effect is equal to or greater than 90%, or complete withering is achieved)	5 (Growth inhibition effect is equal to or greater than 90%, or complete withering is achieved)	5 (Growth inhibition effect is equal to or greater than 90%, or complete withering is achieved)	5 (Growth inhibition effect is equal to or greater than 90%, or complete withering is achieved)	5 (Growth inhibition effect is equal to or greater than 90%, or complete withering is achieved)	
CCOc1cc(CS(=O)(=O)c2ncc(Cl)s2)cc(F)c1F [Compound 1C-83]	5 (Growth inhibition effect is equal to or greater than 90%, or complete withering is achieved)	5 (Growth inhibition effect is equal to or greater than 90%, or complete withering is achieved)	5 (Growth inhibition effect is equal to or greater than 90%, or complete withering is achieved)	5 (Growth inhibition effect is equal to or greater than 90%, or complete withering is achieved)	4 (Growth inhibition effect is equal to or greater than 70%, and less than 90%)	
CCOc1ccc(CS(=O)(=O)c2ncc(Cl)s2)cc1C(F)(F)F [Compound 1C-98]	5 (Growth inhibition effect is equal to or greater than 90%, or complete withering is achieved)	5 (Growth inhibition effect is equal to or greater than 90%, or complete withering is achieved)	5 (Growth inhibition effect is equal to or greater than 90%, or complete withering is achieved)	5 (Growth inhibition effect is equal to or greater than 90%, or complete withering is achieved)	1 (Growth inhibition effect is equal to or greater than 10%, and less than 30%)	
